IC50, EC50 and AC50 data for 14 compounds are collected here from ChEMBL document CHEMBL1201862, “PubChem BioAssay data set” (2004).

Active and inactive are the calls of the source.

In test [1] the target is T1, Sentrin-specific protease 7 (Homo sapiens, UniProt Q9BQF6).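 Further: Luminescence-based dose-response confirmation of ultra-high-throughput screening hits, measuring inhibition of SENP7.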
T1 sequence (Q9BQF6 whole entry): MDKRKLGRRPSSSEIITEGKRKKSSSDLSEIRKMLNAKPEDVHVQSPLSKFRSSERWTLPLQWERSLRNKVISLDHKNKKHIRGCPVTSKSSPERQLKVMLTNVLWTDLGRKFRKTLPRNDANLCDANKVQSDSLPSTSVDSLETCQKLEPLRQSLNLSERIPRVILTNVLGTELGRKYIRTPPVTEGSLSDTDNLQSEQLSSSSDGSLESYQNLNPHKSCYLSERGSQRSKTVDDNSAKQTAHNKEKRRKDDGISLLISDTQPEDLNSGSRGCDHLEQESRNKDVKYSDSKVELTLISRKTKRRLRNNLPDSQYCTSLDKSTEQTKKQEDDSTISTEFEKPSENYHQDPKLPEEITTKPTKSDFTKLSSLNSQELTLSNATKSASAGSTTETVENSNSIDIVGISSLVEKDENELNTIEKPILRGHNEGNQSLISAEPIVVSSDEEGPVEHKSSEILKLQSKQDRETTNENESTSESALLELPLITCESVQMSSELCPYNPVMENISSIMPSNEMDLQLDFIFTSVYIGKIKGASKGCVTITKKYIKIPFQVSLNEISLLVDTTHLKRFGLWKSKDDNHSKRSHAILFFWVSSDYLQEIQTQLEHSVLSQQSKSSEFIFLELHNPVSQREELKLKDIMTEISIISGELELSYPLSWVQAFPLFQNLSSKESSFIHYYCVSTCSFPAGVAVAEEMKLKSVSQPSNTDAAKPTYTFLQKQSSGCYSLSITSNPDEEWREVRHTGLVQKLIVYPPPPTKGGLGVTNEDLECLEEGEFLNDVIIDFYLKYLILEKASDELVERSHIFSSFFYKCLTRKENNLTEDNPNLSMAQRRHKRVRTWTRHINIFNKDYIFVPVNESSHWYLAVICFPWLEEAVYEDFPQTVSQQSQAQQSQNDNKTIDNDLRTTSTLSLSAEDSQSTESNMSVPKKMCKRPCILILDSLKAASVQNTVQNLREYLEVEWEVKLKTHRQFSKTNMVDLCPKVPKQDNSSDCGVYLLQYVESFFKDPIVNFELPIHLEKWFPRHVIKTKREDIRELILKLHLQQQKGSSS
The format is functional.

The target of test [2] is T2, Sentrin-specific protease 8 (Homo sapiens, UniProt Q96LD8).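 Further: luminescence read-out of SENP8 inhibition, dose-response confirmation following an ultra-high-throughput screen.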
T2 sequence (Q96LD8 whole entry): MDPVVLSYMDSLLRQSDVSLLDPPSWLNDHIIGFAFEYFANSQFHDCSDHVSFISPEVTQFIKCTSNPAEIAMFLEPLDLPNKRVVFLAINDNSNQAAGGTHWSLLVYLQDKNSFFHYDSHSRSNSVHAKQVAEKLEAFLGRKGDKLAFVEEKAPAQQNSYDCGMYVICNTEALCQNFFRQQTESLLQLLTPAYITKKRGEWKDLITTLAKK
The format is functional.

The next test addresses T3, Caspase-3 (Homo sapiens, UniProt P42574).
T3 sequence (P42574 whole entry): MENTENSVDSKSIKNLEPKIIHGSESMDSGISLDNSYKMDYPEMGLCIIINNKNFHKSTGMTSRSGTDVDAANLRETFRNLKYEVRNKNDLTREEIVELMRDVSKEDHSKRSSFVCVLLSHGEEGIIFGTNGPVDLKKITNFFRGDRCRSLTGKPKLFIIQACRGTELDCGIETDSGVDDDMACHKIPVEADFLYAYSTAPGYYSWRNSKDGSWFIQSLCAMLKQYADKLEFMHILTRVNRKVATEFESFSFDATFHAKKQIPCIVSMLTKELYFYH
Type of test: functional.

Test [3] addresses T4, Oxysterols receptor LXR-beta (Homo sapiens, UniProt P55055).
T4 sequence (P55055 whole entry): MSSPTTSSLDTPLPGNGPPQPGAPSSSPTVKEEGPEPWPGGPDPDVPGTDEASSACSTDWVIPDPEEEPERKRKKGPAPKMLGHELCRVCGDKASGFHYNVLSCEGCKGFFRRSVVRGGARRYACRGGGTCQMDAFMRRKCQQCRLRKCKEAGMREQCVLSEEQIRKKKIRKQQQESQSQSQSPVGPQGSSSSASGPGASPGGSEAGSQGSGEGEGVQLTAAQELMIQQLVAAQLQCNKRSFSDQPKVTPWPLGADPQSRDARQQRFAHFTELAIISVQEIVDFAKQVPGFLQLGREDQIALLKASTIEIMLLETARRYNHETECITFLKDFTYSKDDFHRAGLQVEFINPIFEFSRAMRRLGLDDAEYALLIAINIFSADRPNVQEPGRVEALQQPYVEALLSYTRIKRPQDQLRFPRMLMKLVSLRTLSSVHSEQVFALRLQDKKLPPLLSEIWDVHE
Type of test: functional, cell-based.

Test [4] concerns the target T5, Sentrin-specific protease 6 (Homo sapiens, UniProt Q9GZR1).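 Further: Luminescence-based dose-response confirmatory assay of SENP6 inhibition, following up an ultra-high-throughput screen.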
T5 sequence (Q9GZR1 whole entry): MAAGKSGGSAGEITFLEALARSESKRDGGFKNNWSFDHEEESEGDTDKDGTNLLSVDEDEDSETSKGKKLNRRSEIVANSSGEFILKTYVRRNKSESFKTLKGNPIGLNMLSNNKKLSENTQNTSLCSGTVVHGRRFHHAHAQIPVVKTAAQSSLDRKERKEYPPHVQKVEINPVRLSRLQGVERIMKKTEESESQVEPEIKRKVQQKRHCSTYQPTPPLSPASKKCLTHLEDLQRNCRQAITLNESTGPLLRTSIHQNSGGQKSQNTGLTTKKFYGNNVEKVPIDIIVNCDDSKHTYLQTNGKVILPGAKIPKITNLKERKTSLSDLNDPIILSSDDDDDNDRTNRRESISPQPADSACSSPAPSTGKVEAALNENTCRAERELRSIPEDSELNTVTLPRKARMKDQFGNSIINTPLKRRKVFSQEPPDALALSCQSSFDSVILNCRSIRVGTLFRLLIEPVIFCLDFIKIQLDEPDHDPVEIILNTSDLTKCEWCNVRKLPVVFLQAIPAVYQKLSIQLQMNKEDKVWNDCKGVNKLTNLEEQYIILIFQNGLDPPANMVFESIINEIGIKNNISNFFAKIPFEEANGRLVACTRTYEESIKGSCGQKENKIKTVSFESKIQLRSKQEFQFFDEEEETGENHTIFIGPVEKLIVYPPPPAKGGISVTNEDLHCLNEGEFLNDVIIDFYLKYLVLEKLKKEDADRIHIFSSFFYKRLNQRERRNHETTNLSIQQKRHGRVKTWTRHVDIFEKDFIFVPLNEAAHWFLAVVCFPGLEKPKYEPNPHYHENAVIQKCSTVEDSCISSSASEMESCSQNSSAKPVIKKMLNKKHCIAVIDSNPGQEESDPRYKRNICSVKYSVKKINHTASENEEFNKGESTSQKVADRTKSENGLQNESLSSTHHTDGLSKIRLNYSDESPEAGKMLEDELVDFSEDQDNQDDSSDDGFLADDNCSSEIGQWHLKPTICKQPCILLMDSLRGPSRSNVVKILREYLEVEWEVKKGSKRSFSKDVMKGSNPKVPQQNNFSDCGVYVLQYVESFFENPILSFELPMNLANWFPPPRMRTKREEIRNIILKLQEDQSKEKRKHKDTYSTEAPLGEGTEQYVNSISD
The format is functional.

Test [5] can be described thus: NIH:OVCAR-3 ovarian cancer cell cytotoxicity, dose response, PAX8 inhibitor project, plate reader, dry powder samples (AID 743044). Type of test: functional, cell-based.
For a further test, the target named is Paired box protein Pax-8 (Homo sapiens, UniProt Q06710). In words: inhibitors of PAX8-driven TPO luciferase reporter, dose response, RMG-I cells, cherry-pick (AID 687027).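 Further: luciferase reporter driven by Pax8 target thyroperoxidase promoter measured by SteadyGlo luminescence.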 The format is functional, cell-based. Background: A reporter such as luciferase makes a cellular process visible.
Paired box protein Pax-8, sequence (Q06710 whole entry): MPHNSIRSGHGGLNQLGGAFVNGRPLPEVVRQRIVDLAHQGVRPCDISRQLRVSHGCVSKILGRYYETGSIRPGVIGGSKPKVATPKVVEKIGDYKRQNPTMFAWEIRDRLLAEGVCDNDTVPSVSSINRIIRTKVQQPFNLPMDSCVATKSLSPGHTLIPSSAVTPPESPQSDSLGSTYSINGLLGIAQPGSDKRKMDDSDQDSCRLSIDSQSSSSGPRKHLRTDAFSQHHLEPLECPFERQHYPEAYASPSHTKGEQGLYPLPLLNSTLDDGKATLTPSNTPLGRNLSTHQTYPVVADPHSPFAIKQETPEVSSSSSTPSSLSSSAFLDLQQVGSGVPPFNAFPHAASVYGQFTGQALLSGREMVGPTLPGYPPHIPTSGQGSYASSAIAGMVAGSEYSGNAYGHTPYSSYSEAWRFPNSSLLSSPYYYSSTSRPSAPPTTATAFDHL
Test [6] is described as follows: cytotoxicity in OVCAR8 ovarian cancer cells, dose response, PAX8 project, cell-based, plate reader, dry powder samples (AID 743197). Type of test: functional. As to conditions: OVCAR-8.
The nature of test [7]: inhibitors of PGC1a acetylation in cells, dose response, cell-based, cherry-picked samples (AID 720514).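 Further: potency may reflect raised or lowered acetylation signal.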 The format is functional.
Test [8] concerns the target G-protein coupled receptor 183 (Homo sapiens, UniProt P32249). Kind of test: SAR confirmation of small molecule antagonists of the EBI2 receptor via a luminescent beta-arrestin assa. The format is functional.
The nature of test [9]: IOSE-T80 ovarian epithelial cell cytotoxicity, dose response, cytotoxicity control for PAX8 inhibitor project, plate reader, dry powder samples (AID 743045). The format is functional, cell-based.
The target in another test is Kallikrein-7 (Homo sapiens, UniProt P49862). Kind of test: Fluorescence Intensity-based biochemical primary high throughput dose response assay to identify activators of kallikrein-7 (K7) zymogen.
Kallikrein-7, sequence (P49862 whole entry): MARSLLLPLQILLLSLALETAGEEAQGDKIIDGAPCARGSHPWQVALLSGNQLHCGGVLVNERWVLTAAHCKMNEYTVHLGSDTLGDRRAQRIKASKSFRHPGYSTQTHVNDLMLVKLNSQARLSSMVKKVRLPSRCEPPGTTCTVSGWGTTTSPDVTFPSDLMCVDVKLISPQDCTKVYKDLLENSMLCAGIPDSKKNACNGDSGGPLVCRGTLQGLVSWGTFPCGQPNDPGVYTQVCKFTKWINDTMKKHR
The nature of test [10]: Jurkat T cell cytotoxicity, dose response, cytotoxicity control for P. falciparum gametocyte viability project, luminescence (AID 1117277).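 Further: potency reflects loss of cellular ATP meaning fewer viable cells.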 The format is functional, cell-based.
The nature of test [11]: P. falciparum late gametocyte killing, dose response, luminescence (AID 1117278).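 Further: gametocytes exposed to compound for 24 hours.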 Type of test: functional, cell-based.
Test [12] can be described thus: P. falciparum Dd2 growth inhibitors, dose response, SYBR Green, dry powder samples, set 9 (AID 1159568). The format is functional, cell-based.
In a further test the target is Caspase-6 (Homo sapiens, UniProt P55212). In words: human caspase-6 inhibitors, dose response, biochemical, VEID-R110 fluorescence, cherry-pick (AID 720632).
Caspase-6, sequence (P55212 24-179 limits assumed): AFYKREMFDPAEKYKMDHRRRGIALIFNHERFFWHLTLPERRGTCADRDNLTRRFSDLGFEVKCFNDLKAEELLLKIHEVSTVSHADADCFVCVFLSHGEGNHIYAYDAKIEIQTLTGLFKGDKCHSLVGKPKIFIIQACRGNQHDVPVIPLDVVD
Caspase-6, sequence (P55212 194-293 limits assumed): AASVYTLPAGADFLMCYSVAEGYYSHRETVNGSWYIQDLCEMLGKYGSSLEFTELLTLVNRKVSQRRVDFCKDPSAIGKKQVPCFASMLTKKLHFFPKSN
A short description of test [13]: P. falciparum 3D7-ScDHODH growth inhibitors, dose response, SYBR Green, dry powder samples (AID 1159570).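 Further: parasite growth measured after 72 hours of compound exposure.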 The format is functional, cell-based.
The nature of test [14]: P. falciparum Dd2 growth inhibitors, dose response, SYBR Green, cherry-picked samples (AID 1159567). The format is functional, cell-based.
The nature of test [15]: A549 cell cytotoxicity, dose response, cytotoxicity control, plate reader, cherry-pick, antagonist series (AID 743412). Type of test: functional, cell-based.
Test [16] is described as follows: LGR2 antagonists, dose response, cell-based, HEK293, CRE-luciferase reporter, cherry pick, set 2 (AID 743343).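 Further: transfected cells were stimulated with diluted bursicon conditioned medium after compound addition.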 Type of test: functional.
Test [17] is described as follows: P. falciparum ATP4 D1247Y mutant growth inhibitors, dose response, NITD609-resistant line, SYBR Green, dry powder (AID 1159571).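 Further: parasites synchronized at ring stage by sorbitol before testing.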 The format is functional, cell-based.
A short description of test [18]: HepG2 cell cytotoxicity, dose response, cytotoxicity control, plate reader, dry powder samples (AID 1159569).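 Further: inhibitor potency with signal falling toward the positive control level.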 The format is functional, cell-based.
Test [19] is described as follows: MC4R antagonists, dose response, counter-screen for LGR2 antagonist project, cell-based, plate reader, cherry pick (AID 743444).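 Further: transfected HEK 293 cells stimulated with alpha-MSH peptide; potency of inhibitors of the alpha-MSH evoked signal.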 Type of test: functional. (The purpose of a counterscreen is to sort out artefacts and off-target activity.)
A short description of test [20]: P. falciparum Dd2 growth inhibitors, dose response, SYBR Green, dry powder samples (AID 1159566).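 Further: potency for growth inhibition with lower SYBR green DNA signal.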 The format is functional, cell-based.

G-protein coupled receptor 183, sequence (P32249 whole entry): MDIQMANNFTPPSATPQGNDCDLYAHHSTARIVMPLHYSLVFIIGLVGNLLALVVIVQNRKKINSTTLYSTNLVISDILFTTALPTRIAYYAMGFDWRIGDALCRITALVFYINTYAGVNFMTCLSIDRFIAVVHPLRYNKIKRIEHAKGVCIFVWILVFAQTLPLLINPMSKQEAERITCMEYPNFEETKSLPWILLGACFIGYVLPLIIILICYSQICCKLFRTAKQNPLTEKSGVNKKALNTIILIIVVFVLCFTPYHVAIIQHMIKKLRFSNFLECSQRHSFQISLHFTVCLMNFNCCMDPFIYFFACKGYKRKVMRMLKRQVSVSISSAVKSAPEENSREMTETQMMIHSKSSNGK

By IC50 is commonly meant the midpoint of a concentration-inhibition curve. The term EC50 denotes the midpoint of the concentration-response curve. `CCOC(=O)/C(=N\Nc1ncnc2ccccc12)c1ccc(C)cc1`: the IC50 in [1] was 6.78 µM (active); in test [2] it was 13.4 µM (active); on Caspase-3 it was 32.9 µM (active); in test [4], 11.7 µM (active). Also, the EC50 (in [3]; in the test “cells”) was > 67.6 µM (inactive) throughout.
The term AC50 denotes the concentration at which the activity in the assay is half-maximal. `Cc1ccc(S(=O)(=O)N(C)C[C@@H]2Oc3cc(C#Cc4ccncc4)ccc3S(=O)(=O)N([C@H](C)CO)C[C@H]2C)cc1`: the AC50 in [5] is 3.13 µM (active); on Paired box protein Pax-8, 3.3 µM (active); in [6] it was > 70 µM (inactive); in [7] it was 3.54 µM (active).
On to `Cc1ccc(C(=O)N2CCN(C(=O)/C=C/c3ccc(Br)cc3)CC2)cc1`, for which the IC50 in test [8] was 0.00102 µM (active).
`C[C@@H]1CCCCO[C@H](CN(C)Cc2ccc(C(=O)Nc3ccccc3N)cc2)[C@@H](C)CN([C@@H](C)CO)C(=O)c2cc(NS(=O)(=O)c3ccc(Cl)cc3)ccc2O1`: the AC50 in test [5] is 7.38 µM (active); at Paired box protein Pax-8 it was 11.7 µM (active); in test [6], 41.6 µM (active); in [9], 46.9 µM (active).
For `O=C(/C=C/c1ccc(F)cc1)N1CCN(S(=O)(=O)c2ccccc2Br)CC1`, in test [8], the IC50 was 0.00801 µM (active).
Take `CN(C)CCNS(=O)(=O)c1ccc2c3c(cccc13)C(=O)N2`: the EC50 on Kallikrein-7 is 1.83 µM (active).
`COc1cc(CCC(C)=O)ccc1OC(=O)c1c(F)cccc1Cl`: the IC50 in [10] is > 83.2 µM (inactive); in test [11], > 109 µM (inactive).
For the compound `COc1ccccc1C(=O)NC(=O)Nc1cccc(Cl)c1`, the EC50 (in test [3]; in “cells”) was > 67.5 µM (inactive) each time.
Take `CCOC(=O)N1CCC2(CC1)CC(=O)c1c(ccc3oc(C(=O)O)c(C)c13)O2`: the EC50 on Kallikrein-7 is 97.5 µM (inactive).
For the compound `COc1ccc(S(=O)(=O)Nc2ccc3c(c2)C(=O)N([C@@H](C)CO)C[C@@H](C)[C@@H](CN(C)Cc2ccc(C(F)(F)F)cc2)OCCCC[C@@H](C)O3)cc1`, the AC50 in test [5] is 23.1 µM (active); at Paired box protein Pax-8, 6.1 µM (active); in test [6], 22.5 µM (active); in [9] it was 24 µM (active).
For `O=C1Nc2ccccc2N=C(c2ccccc2)C1N(Cc1ccc(F)cc1)C(=O)c1cccnc1` (stereo not drawn), the AC50 in test [7] was 36.7 µM (active).
As for `C[C@@H]1CN([C@H](C)CO)C(=O)c2cccc(NC(=O)c3ccc(-c4nccs4)cc3)c2O[C@@H]1CN(C)C(=O)Nc1ccc(C(F)(F)F)cc1`, the AC50 in [12] is 0.886 µM (active).
Turning to `NNC(=O)CNC(=O)Nc1nnc(S)s1`, the AC50 at Caspase-6 is 6.63 µM (active).
With `C[C@H](CO)N1C[C@H](C)[C@H](CN(C)S(=O)(=O)c2ccc(C(F)(F)F)cc2)OCc2ccccc2-c2c(n(C)c3ccccc23)C1=O`, the AC50 in [13] is 0.155 µM (active); in test [14], 0.427 µM (active); in [15], 19.8 µM (active); in test [16] it was 27.3 µM (active); in test [17], 0.152 µM (active); in test [12] it was 0.293 µM (active). In addition, the AC50 is 25.7 µM (active) in test [18], 28.9 µM (active) in test [19] and 0.117 µM (active) in test [20].
